Measured values: US20250235427A1, “5-METHOXY-N,N-[…][…] THE TREATMENT OF SOCIAL/EMOTIONAL […] DETACHMENT” (GH RESEARCH IRELAND LIMITED, priority 2022, published 2025)

Experiment: Pharmacokinetics after inhalation of 5-MeO-DMT, LC-MS/MS
Format: in vivo, human
Settings: for plasma concentration as % of Cmax: whole dose range 6, 12, 18 mg

COc1ccc2[nH]cc(CCN(C)C)c2c1 [5-MeO-DMT]
plasma concentration as % of Cmax (10 minutes after inhalation): ≤ 10% | plasma concentration as % of Cmax (2 hours after inhalation): ≤ 1% | accumulation upon repeated administration (repeated administration within a time frame of 1 to 4 hours): No accumulation is observed
